Non-standard residues stand in square brackets, D forms with d. Residues, ends and D or L forms follow the SMILES beside them. Bip = N[C@@H](Cc1ccc(-c2ccccc2)cc1)C(=O)O; Dip = N[C@H](C(=O)O)C(c1ccccc1)c1ccccc1
Key:
[1] = test system: OECM-1 cells (gingival epidermoid carcinoma); conditions: for cell viability percentage: human, 24 h
Description: (§1) Three non-small cell lung cancer cell lines (H1975, A549, PC9) and two oral cancer cell lines (CGNHC9, OECM-1) were used in the present invention. H1975 is the non-small cell lung carcinoma tissue, A549 is the adenocarcinomic alveolar basal epithelial cells and PC9 is the non-small cell lung cancer with EGFR mutation. CGNHC9 and OECM-1 cell lines refer to oral squamous cell carcinoma and gingival epidermoid carcinoma respectively. The abovemetioned cell lines were derived from human origin and being cultured in the humidified incubator containing 5% CO2 at 37° C. CGNHC9 cell line was cultured in Dulbecco’s modified Eagle’s medium (GIBCO Life Technologies Corporation, NY, USA) with 10% fetal bovine serum (FBS), 2 mM L-glutamine and 1% penicillin/ streptomycin and Roswell Park Memorial Institute 1640 (RPMI 1640, GIBCO Life Technologies Corporation, NY, USA) medium with 10% fetal bovine serum (FBS), 2 mM L-glutamine and 1% penicillin/ streptomycin was used as the culture medium for the rest of the cell lines.
(§2) The anticancer activity of ICD peptides include, not limited, SEQ ID NO: 1 and its derivative peptides (SEQ ID NO: 2, SEQ ID NO: 3, SEQ ID NO: 4, and SEQ ID NO: 5) was using the 3-(4,5-Dimethyl-2-thiazolyl)-2,5-diphenyl-2H-tetrazolium bromide (MTT, Sigma Aldrich, St. Louis, MO, USA) colorimetric assay for cell viability test. The cells include, not limited, H1975, A549, PC9, CGNHC9, OECM-1, MN-11 and HFW cells/cell lines.
(§3) The cells were seeded in the 96-well plate at 5000 cells/well under the environment of humidified 5% CO2 and the temperature of 37° C. for 24 hours. The medium was removed from the well before the fresh medium containing different concentrations of ICD peptides was added and incubated for 24 hours. Medium with PBS solution was used as control group. All ICD peptides were diluted serially from 100 µM to 0.78 µM in ddH2O before adding in the medium. After 24 hours of ICD peptide treatment, fresh medium with 10% MTT solution (5 mg/mL) was incubated for additional 4 hours in advance of dissolving the formazan crystal in 100 µL DMSO (Dimethyl sulfoxide, Sigma Aldrich) solution. The calculation of cell survival rate was completed by measuring the absorbance at 570 nm using microplate reader (TECAN Sunrise ELISA Reader).
(§4) The cell survival was calculated from the treated cells relative to the control (100% viable cells) using the mean of three independent experiments and expressed as a 50% inhibitory concentration (IC50).
(§5) The percentage of cell viability was calculated using the following formula: […]
(§6) The half inhibition concentration (IC50) is the concentration required by the drug to reach fifty percent inhibition. In one embodiment, the SEQ ID NO: 1 and its derivative peptides (SEQ ID NO:2, SEQ ID NO:3, SEQ ID NO:4, SEQ ID NO: 5) was used for IC50 test via MTT colorimetric assay.

[2] = test system: CGNHC9 cells (oral squamous cell carcinoma); conditions: for cell viability percentage: human, 24 h
Description: as §1, §2, §3, §4, §5, §6

[3] = test system: PC9 cells (non-small cell lung cancer with EGFR mutation); conditions: human, 24 h
Description: as §1, §2, §3, §4, §5, §6

MN-11 cell line = format: cell-based, murine; conditions: 2 h
Procedure: Besides, evaluation of the killing kinetics of Nal-P-113, Bip-P-113 and Dip-P-113 for MN-11 was determined by MTT assay. Two-fold half 1inhibitory concentration (2 × IC50) was chosen for the experiments and the results were recorded at selected time points (30 mins, 1 hour, 2 hours and 4 hours). […] In 2 hours, the cell survival rate was near 50%.

[4] = test system: MN-11 cells (murine fibrosarcoma); format: cell-based
Description: Medium with PBS solution was used as control group.
Besides, MTT assay was used to test the cell viability of the murine fibrosarcoma MN-11 cell line. Among the peptides, Dip-P-113 had the lowest cytotoxicity against MN-11 cells (FIG. 1F).

[5] = test system: H1975 cells (non-small cell lung cancer); conditions: 24 h
Description: as §1, §2, §3, §4, §5, §6

[6] = test system: A549 cells (adenocarcinomic alveolar basal epithelial cells); conditions: A549, MTT, 24 hours
Description: as §1, §2, §3, §4, §5, §6

Molecule: CC(=O)N[C@@H](C)C(=O)N[C@@H](CCCCN)C(=O)N[C@@H](CCCNC(=N)N)C(=O)N[C@@H](Cc1ccc(-c2ccccc2)cc1)C(=O)N[C@@H](Cc1ccc(-c2ccccc2)cc1)C(=O)NCC(=O)N[C@@H](Cc1ccc(O)cc1)C(=O)N[C@@H](CCCCN)C(=O)N[C@@H](CCCNC(=N)N)C(=O)N[C@@H](CCCCN)C(=O)N[C@@H](Cc1ccccc1)C(=O)N[C@@H](Cc1ccc(-c2ccccc2)cc1)C(N)=O [SEQ ID NO:4, Ac-AKR Bip Bip GYKRKF Bip-NH2] (Ac-AKR[Bip][Bip]GYKRKF[Bip]-NH2)
- cell viability percentage [1]: lower than 20%
- cell viability percentage [2]: lower than 20%
- cell viability percentage [3]: lower than 20%
- cell survival rate (MN-11 cell line): ~50%
- IC50 [4]: 12.1 ± 0.47 µM

Molecule: CC(=O)N[C@@H](C)C(=O)N[C@@H](CCCCN)C(=O)N[C@@H](CCCNC(=N)N)C(=O)N[C@H](C(=O)N[C@H](C(=O)NCC(=O)N[C@@H](Cc1ccc(O)cc1)C(=O)N[C@@H](CCCCN)C(=O)N[C@@H](CCCNC(=N)N)C(=O)N[C@@H](CCCCN)C(=O)N[C@@H](Cc1ccccc1)C(=O)N[C@H](C(N)=O)C(c1ccccc1)c1ccccc1)C(c1ccccc1)c1ccccc1)C(c1ccccc1)c1ccccc1 [SEQ ID NO: 5, Ac-AKR Dip Dip GYKRKFDip-NH2] (Ac-AKR[Dip][Dip]GYKRKF[Dip]-NH2)
- cell viability percentage [1]: lower than 20%
- cell viability percentage [2]: lower than 20%
- IC50 [5]: 100 µM
- cell viability percentage [3]: lower than 20%
- cell survival rate (MN-11 cell line): ~50%
- IC50 [4]: 59.8 ± 6.13 µM

Molecule: Ac-AKRHHGYKRKFH-NH2 [SEQ ID NO: 1, Ac-AKR His His GYKRKF His-NH2]
- IC50 ([1]; OECM-1, MTT, 24 hours): 141 µM
- IC50 [6]: 107 µM
- IC50 ([2]; CGNHC9, MTT, 24 hours): 84.3 µM
- IC50 [5]: 110 µM

Molecule: Ac-AKRFFGYKRKFF-NH2 [SEQ ID NO:2, Ac-AKR Phe Phe GYKRKF Phe-NH2]
- IC50 [5]: 107 µM
